Patent US20140045885A1, “Decoquinate, 4-hydroxyquinolones and napthoquinones combined with levamisole, Imidazothiazole, for the prevention and treatment of sarcocystosis and equine protozoal myeloencephalitis caused by Sarcocystis and Neospora and other apicomplexan protozoans” (priority 2012, published 2014)
Read-outs that look alike come from different tables or passages of the source.

How the values were obtained:
[1] = tested on: Sarcocystis neurona merozoites (SN6 strain); conditions: 0.1 microgram/ml decoquinate for 5 or 15 minutes, washed off, read at 6 weeks; cited from earlier work
[2] = tested on: Sarcocystis neurona merozoites (SN2 strain); conditions: 0.1 microgram/ml decoquinate for 10 or 20 minutes, washed off, cultures maintained 16 days, controls 40% CPE; cited from earlier work
[3] = tested on: Sarcocystis neurona merozoites (SN3 strain); conditions: 0.1 microgram/ml decoquinate for 10 or 20 minutes, washed off, cultures maintained 16 days, controls 25% CPE; cited from earlier work
[4] = Safety at the treatment dose in 150 horses; assay type: in vivo, horse; conditions: decoquinate 0.5 mG/kG and levamisole 1 mG/kG alone and in combination
[5] = tested on: S. neurona infections or EPM; experiment: Trial in horses with presumptive diagnosis of EPM; assay type: in vivo, horse
Protocol: A trial was initiated in which veterinarians conducted neurological examinations and determined a presumptive diagnosis of EPM. […] The phenotype of S. neurona eliciting antibody production was determined for each animal. […] A neurological exam was conducted at the end of the treatment period and two to four weeks following treatment. Two to four weeks after treatment antibody levels were again assessed for serum antibody levels to S. neurona by phenotype. […] Veterinarians involved in the study elected to start decoquinate therapy at 0.05 mG/kG if the animals had received anti-protozoal therapy in the past and the case was considered a relapse of EPM.

[6] = tested on: Sarcocystis neurona merozoites (SN3 strain); conditions: cited from earlier work
[7] = cited from earlier work
EPM = conditions: cited from earlier work; for cure rate / relapse rate: EPM treatment in horses; for efficacy in horses to improve one grade of disease: EPM treatment
S. neurona = conditions: cell cultures infected with S. neurona; cited from earlier work
[8] = cited from earlier work; remark: listed apart in the source
[9] = in vivo; cited from earlier work
[10] = horses, 5 mg/kg daily for 10 days

Q: For `CCCCCCCCCCOc1cc2c(O)c(C(=O)OCC)cnc2cc1OCC` [decoquinate, 6-declyoxy-7-ethoxy-4-hydroxy-3-quinoline-carboxylic acid ethyl ester], which “parasites or parasite induced lesions in treated infected flasks” value [1] is on record?
A: No parasites or parasite induced lesions were seen

Q: And the “cytopathic effect (CPE)” value [2]?
A: 5%

Q: And the “parasites or parasite induced lesions in treated infected flasks” value [3]?
A: No parasites or parasite induced lesions were seen

Q: What about the adverse reactions [4] of the same compound?
A: no adverse reactions

Q: What about the “time of therapy until noted improvement” value ([5]; decoquinate alone 0.05 mG/kG versus decoquinate/levamisole 0.5 mG/kG and 1.0 mg/kG) of the same compound?
A: > 5 days

Q: What about the “treatment outcome in mildly afflicted horses” value ([5]; prevention dose 0.05 mG/kG decoquinate alone, 90 days, 7 horses) of the same compound?
A: success obtained in all the horses

Q: What about the “success in historically relapsing horses” value ([5]; relapse cases after Marquis (17) or pyrimethamine/sulfadiazine (2), decoquinate therapy started at 0.05 mG/kG) of the same compound?
A: 100%

Q: What about the “reduction in merozoite production” value ([6]; 0.0001 microgram/ml continuously for 10 days) of the same compound?
A: 40%

Q: What about the “reduction in merozoite production” value ([6]; 0.001 microgram/ml continuously for 10 days) of the same compound?
A: 87%

Q: And the “reduction in merozoite production” value ([6]; 0.01 microgram/ml continuously for 10 days)?
A: 98%

Q: Which results are given for `N#CC(c1ccc(Cl)cc1)c1c(Cl)cc(-n2ncc(=O)[nH]c2=O)cc1Cl` (stereo not shown) [diclazuril]?
A: time after feeding at which drug was found in serum ([7]; fed to horses): one; cure rate (EPM): less than 25%; relapse rate (EPM): 60%; efficacy in horses to improve one grade of disease (EPM): 60%; anti-S. neurona activity in cell cultures (S. neurona): has anti-S. neurona activity

Q: With `c1ccc([C@H]2CN3CCSC3=N2)cc1` [levamisole] as the compound, how does the adverse reactions [4] read?
A: no adverse reactions

Q: With `Cc1cc(-n2c(=O)[nH]c(=O)n(C)c2=O)ccc1Oc1ccc(SC(F)(F)F)cc1` [toltrazuril] as the compound, how does the lipid solubility [8] read?
A: good lipid solubility

Q: What about the “mean CSF concentration” value [7, 10] of the same compound?
A: 160 µg/mL

Q: And the plasma levels [7, 10]?
A: 20000 ng/mL

Q: And the oral absorption ([7]; in vivo, po)?
A: good oral absorption

Q: And the elimination time ([7]; in vivo)?
A: 48 to 72 h

Q: And the cure rate (EPM)?
A: less than 25%

Q: What about the relapse rate (EPM) of the same compound?
A: 60%

Q: What about the “efficacy in horses to improve one grade of disease” value (EPM) of the same compound?
A: 60%

Q: What about the “complications, serum chemistry values, complete blood counts” value [9] of the same compound?
A: has not been shown to result in any complications
